Experimental data: ChEMBL document CHEMBL5247620, “Lupane derivatives containing various aryl substituents in the position 3 have selective cytostatic effect in leukemic cancer cells including resistant phenotypes” (Eur J Med Chem, 2022)

What was measured:
[1] = Cytotoxicity against human MRC5 cells assessed as inhibition of cell growth incubated for 72 hrs by MTS assay; assay type: toxicity, cell-based
HCT-116 = experiment: Cytotoxicity against human HCT-116 cells assessed as inhibition of cell growth incubated for 72 hrs by MTS assay; assay type: functional, cell-based; conditions: HCT-116, 72 h
[2] = Cytotoxicity against human BJ cells assessed as inhibition of cell growth incubated for 72 hrs by MTS assay; assay type: toxicity, cell-based
U2OS = experiment: Cytotoxicity against human U2OS cells assessed as inhibition of cell growth incubated for 72 hrs by MTS assay; assay type: functional, cell-based
CCRF-CEM = experiment: Cytotoxicity against human CCRF-CEM cells assessed as inhibition of cell growth incubated for 72 hrs by MTS assay; assay type: functional, cell-based
CEM-DNR = experiment: Cytotoxicity against human CEM-DNR cells assessed as inhibition of cell growth incubated for 72 hrs by MTS assay; assay type: functional, cell-based
[3] = Cytotoxicity against human p53HCT116 cells assessed as inhibition of cell growth incubated for 72 hrs by MTS assay; assay type: functional, cell-based; conditions: p53HCT116, 72 h
[4] = Cytotoxicity against human K562-Tax cells assessed as inhibition of cell growth incubated for 72 hrs by MTS assay; assay type: functional, cell-based
K562 = experiment: Cytotoxicity against human K562 cells assessed as inhibition of cell growth incubated for 72 hrs by MTS assay; assay type: functional, cell-based; conditions: K562, 72 h
A549 = experiment: Cytotoxicity against human A549 cells assessed as inhibition of cell growth incubated for 72 hrs by MTS assay; assay type: functional, cell-based; conditions: A549, 72 h

Compound | IC50 at 72 h [1] [µM] | IC50 (HCT-116) [µM] | IC50 at 72 h [2] [µM] | IC50 (U2OS) [µM] | IC50 (CCRF-CEM) [µM] | IC50 (CEM-DNR) [µM] | IC50 [3] [µM] | IC50 [4] [µM] | IC50 (K562) [µM] | IC50 (A549) [µM]
C=C(C)[C@@H]1CC[C@]2(C(=O)O)CC[C@]3(C)[C@H](CC[C@@H]4[C@@]5(C)CC=C(c6cccc(C(=O)OC)c6)C(C)(C)[C@@H]5CC[C@]43C)[C@@H]12 | 44 | 50 | > 50 | 8.8 | 17 | > 50 | 41 | 43 | > 50 | > 50
C=C(C)[C@@H]1CC[C@]2(C(=O)O)CC[C@]3(C)[C@H](CC[C@@H]4[C@@]5(C)CC=C(c6cccc([N+](=O)[O-])c6)C(C)(C)[C@@H]5CC[C@]43C)[C@@H]12 | 48 | 48 | 50 | 46 | 18 | 43 | 47 | 24 | 45 | 34
C=C(C)[C@@H]1CC[C@]2(C(=O)O)CC[C@]3(C)[C@H](CC[C@@H]4[C@@]5(C)CC=C(c6ccc(C(=O)OC)cc6)C(C)(C)[C@@H]5CC[C@]43C)[C@@H]12 | 46 | 47 | 47 | 46 | 46 | 47 | 47 | 7.2 | 48 | 47
C=C(C)[C@@H]1CC[C@]2(C(=O)O)CC[C@]3(C)[C@H](CC[C@@H]4[C@@]5(C)CC=C(c6ccc(N)cc6)C(C)(C)[C@@H]5CC[C@]43C)[C@@H]12 | > 50 | 25 | > 50 | 22 | 3.8 | 11 | 24 | 19 | 17 | 26
C=C(C)[C@@H]1CC[C@]2(C(=O)O)CC[C@]3(C)[C@H](CC[C@@H]4[C@@]5(C)CC=C(c6ccccc6N)C(C)(C)[C@@H]5CC[C@]43C)[C@@H]12 | > 50 | 46 | > 50 | 27 | 11 | 46 | 18 | 44 | 46 | 24
C=C(C)[C@@H]1CC[C@]2(C(=O)O)CC[C@]3(C)[C@H](CC[C@@H]4[C@@]5(C)CC=C(c6ccccc6C(=O)OC)C(C)(C)[C@@H]5CC[C@]43C)[C@@H]12 | 22 | 27 | 38 | 25 | 15 | 27 | 23 | 29 | 26 | 26
C=C(C)[C@@H]1CC[C@]2(C(=O)O)CC[C@]3(C)[C@H](CC[C@@H]4[C@@]5(C)CC=C(c6cccc(C(F)(F)F)c6)C(C)(C)[C@@H]5CC[C@]43C)[C@@H]12 | 50 | 37 | > 50 | 45 | 19 | 37 | > 50 | 30 | > 50 | 46
C=C(C)[C@@H]1CC[C@]2(C(=O)O)CC[C@]3(C)[C@H](CC[C@@H]4[C@@]5(C)CC=C(c6ccccc6OC)C(C)(C)[C@@H]5CC[C@]43C)[C@@H]12 | 27 | 24 | 48 | 28 | 16 | 24 | 23 | 23 | 30 | 42
C=C(C)[C@@H]1CC[C@]2(C(=O)O)CC[C@]3(C)[C@H](CC[C@@H]4[C@@]5(C)CC=C(c6ccc([N+](=O)[O-])cc6)C(C)(C)[C@@H]5CC[C@]43C)[C@@H]12 | > 50 | > 50 | > 50 | 42 | 26 | > 50 | > 50 | > 50 | > 50 | > 50
C=C(C)[C@@H]1CC[C@]2(C(=O)O)CC[C@]3(C)[C@H](CC[C@@H]4[C@@]5(C)CC=C(c6cccc(OC)c6)C(C)(C)[C@@H]5CC[C@]43C)[C@@H]12 | > 50 | 31 | > 50 | 35 | 15 | 31 | > 50 | 29 | > 50 | 45
C=C(C)[C@@H]1CC[C@]2(C(=O)O)CC[C@]3(C)[C@H](CC[C@@H]4[C@@]5(C)CC=C(c6ccc(OC)cc6)C(C)(C)[C@@H]5CC[C@]43C)[C@@H]12 | 46 | 50 | 50 | 42 | 23 | 50 | 50 | 50 | 50 | 43
C=C(C)[C@@H]1CC[C@]2(C(=O)O)CC[C@]3(C)[C@H](CC[C@@H]4[C@@]5(C)CC=C(c6ccccc6O)C(C)(C)[C@@H]5CC[C@]43C)[C@@H]12 | 31 | 30 | > 50 | 26 | 10 | 30 | > 50 | 15 | > 50 | 41
C=C(C)[C@@H]1CC[C@]2(C(=O)OCc3ccccc3)CC[C@]3(C)[C@H](CC[C@@H]4[C@@]5(C)CC=C(OS(=O)(=O)C(F)(F)F)C(C)(C)[C@@H]5CC[C@]43C)[C@@H]12 | 27 | 22 | 40 | 29 | 14 | 22 | 29 | 18 | 23 | 20
